From paper PMC12102759 (Protein Science : A Publication of the Protein Society, 2025)
Where two headings read alike, the source gives them in different places.

Test system: PABPC1 PABC
Type: binding, human
Details: DMS-BM library, bait PABPC1 PABC, row aa = residue at this position; for DMS-derived PSSM value, position K7 / DMS-derived PSSM value (averaged), position K7: K = wild type
[1] = prey ATXN2, TLNPNAKEFNPRSF(averaged) over the two overlapping peptides, P = wild type
[2] = prey ATXN2, peptide TLNPNAKEFNPRSFSQ
[3] = prey ATXN2, peptide KSTLNPNAKEFNPRSF, S = wild type
[4] = prey ATXN2, TLNPNAKEFNPRSF(averaged) over the two overlapping peptides
[5] = prey ATXN2, peptide KSTLNPNAKEFNPRSF, N = wild type
[6] = prey ATXN2, peptide KSTLNPNAKEFNPRSF, P = wild type
[7] = prey ATXN2, peptide TLNPNAKEFNPRSFSQ, S = wild type
[8] = prey ATXN2, TLNPNAKEFNPRSF(averaged) over the two overlapping peptides, F = wild type
[9] = prey ATXN2, peptide TLNPNAKEFNPRSFSQ, N = wild type

## KSTLNPNAKEFNPRSF F11M (KSTLNPNAKEMNPRSF)
Prey ATXN2, peptide KSTLNPNAKEFNPRSF, F = wild type
  DMS-derived PSSM value, position F11: 0

## TLNPNAKEFNPRSF(averaged) P11E (TLNPNAKEFNERSF)
[1]
  DMS-derived PSSM value (averaged), position P11: 0.00334

## TLNPNAKEFNPRSFSQ K7E (TLNPNAEEFNPRSFSQ)
[2]
  DMS-derived PSSM value, position K7: 0.001823

## KSTLNPNAKEFNPRSF S15Q (KSTLNPNAKEFNPRQF)
[3]
  DMS-derived PSSM value, position S15: 0

## TLNPNAKEFNPRSF(averaged) K7F (TLNPNAFEFNPRSF)
[4]
  DMS-derived PSSM value (averaged), position K7: 0.04105

## KSTLNPNAKEFNPRSF N7Q (KSTLNPQAKEFNPRSF)
[5]
  DMS-derived PSSM value, position N7: 0.04334

## TLNPNAKEFNPRSFSQ E8R (TLNPNAKRFNPRSFSQ)
Prey ATXN2, peptide TLNPNAKEFNPRSFSQ, E = wild type
  DMS-derived PSSM value, position E8: 0

## TLNPNAKEFNPRSF(averaged) N10F (TLNPNAKEFFPRSF)
Prey ATXN2, TLNPNAKEFNPRSF(averaged) over the two overlapping peptides, N = wild type
  DMS-derived PSSM value (averaged), position N10: 0.02798

## KSTLNPNAKEFNPRSF A8I (KSTLNPNIKEFNPRSF)
Prey ATXN2, peptide KSTLNPNAKEFNPRSF, A = wild type
  DMS-derived PSSM value, position A8: 0

## KSTLNPNAKEFNPRSF P6E (KSTLNENAKEFNPRSF)
[6]
  DMS-derived PSSM value, position P6: 0

## KSTLNPNAKEFNPRSF N12M (KSTLNPNAKEFMPRSF)
[5]
  DMS-derived PSSM value, position N12: 0.08333

## KSTLNPNAKEFNPRSF S2G (KGTLNPNAKEFNPRSF)
[3]
  DMS-derived PSSM value, position S2: 0.02803

## TLNPNAKEFNPRSFSQ S13V (TLNPNAKEFNPRVFSQ)
[7]
  DMS-derived PSSM value, position S13: 0.02255

## TLNPNAKEFNPRSFSQ K7W (TLNPNAWEFNPRSFSQ)
[2]
  DMS-derived PSSM value, position K7: 0.03322

## TLNPNAKEFNPRSFSQ S15L (TLNPNAKEFNPRSFLQ)
[7]
  DMS-derived PSSM value, position S15: 0.001672

## KSTLNPNAKEFNPRSF S2T (KTTLNPNAKEFNPRSF)
[3]
  DMS-derived PSSM value, position S2: 0.02133

## TLNPNAKEFNPRSF(averaged) K7P (TLNPNAPEFNPRSF)
[4]
  DMS-derived PSSM value (averaged), position K7: 0.005399

## TLNPNAKEFNPRSF(averaged) P11Q (TLNPNAKEFNQRSF)
[1]
  DMS-derived PSSM value (averaged), position P11: 0.04932

## KSTLNPNAKEFNPRSF N7K (KSTLNPKAKEFNPRSF)
[5]
  DMS-derived PSSM value, position N7: 0.007258

## TLNPNAKEFNPRSF(averaged) F14T (TLNPNAKEFNPRST)
[8]
  DMS-derived PSSM value (averaged), position F14: 0.01392

## KSTLNPNAKEFNPRSF S2L (KLTLNPNAKEFNPRSF)
[3]
  DMS-derived PSSM value, position S2: 0.006151

## TLNPNAKEFNPRSF(averaged) R12P (TLNPNAKEFNPPSF)
Prey ATXN2, TLNPNAKEFNPRSF(averaged) over the two overlapping peptides, R = wild type
  DMS-derived PSSM value (averaged), position R12: 0.006659

## TLNPNAKEFNPRSF(averaged) F14R (TLNPNAKEFNPRSR)
[8]
  DMS-derived PSSM value (averaged), position F14: 0.0001414

## TLNPNAKEFNPRSFSQ N3Y (TLYPNAKEFNPRSFSQ)
[9]
  DMS-derived PSSM value, position N3: 0

## TLNPNAKEFNPRSFSQ P4H (TLNHNAKEFNPRSFSQ)
Prey ATXN2, peptide TLNPNAKEFNPRSFSQ, P = wild type
  DMS-derived PSSM value, position P4: 0.0297

## TLNPNAKEFNPRSF(averaged) P11D (TLNPNAKEFNDRSF)
[1]
  DMS-derived PSSM value (averaged), position P11: 0.002991

## TLNPNAKEFNPRSF(averaged) L2I (TINPNAKEFNPRSF)
Prey ATXN2, TLNPNAKEFNPRSF(averaged) over the two overlapping peptides, L = wild type
  DMS-derived PSSM value (averaged), position L2: 0.0008035

## TLNPNAKEFNPRSF(averaged) P11H (TLNPNAKEFNHRSF)
[1]
  DMS-derived PSSM value (averaged), position P11: 0.07852

## KSTLNPNAKEFNPRSF P6M (KSTLNMNAKEFNPRSF)
[6]
  DMS-derived PSSM value, position P6: 0

## TLNPNAKEFNPRSFSQ N10D (TLNPNAKEFDPRSFSQ)
[9]
  DMS-derived PSSM value, position N10: 0.08868

## TLNPNAKEFNPRSFSQ N5S (TLNPSAKEFNPRSFSQ)
[9]
  DMS-derived PSSM value, position N5: 0.00244

## KSTLNPNAKEFNPRSF N12S (KSTLNPNAKEFSPRSF)
[5]
  DMS-derived PSSM value, position N12: 0.008786

## TLNPNAKEFNPRSF(averaged) A6S (TLNPNSKEFNPRSF)
Prey ATXN2, TLNPNAKEFNPRSF(averaged) over the two overlapping peptides, A = wild type
  DMS-derived PSSM value (averaged), position A6: 0.04153

## TLNPNAKEFNPRSF(averaged) F9G (TLNPNAKEGNPRSF)
[8]
  DMS-derived PSSM value (averaged), position F9: 0
